Test results taken from patent publication US7427408B2, “Quorum sensing and biofilm formation” (priority 2002, dated 2008).

How the values were obtained:
[1] = tested on: S. mutans biofilms (wildtype and luxS mutant); experiment: Treatment of in vitro biofilm with SDS (detergent resistance); format: cell-based, Streptococcus mutans; settings: 1% SDS, shaken at 150 rpm for one hour
Procedure: Three samples of wildtype and mutant biofilms grown on glass coverslips were shaken at 150 rpm for one hour. The OD600 of the resulting supernatants were compared.
(§1) Biofilms of S. mutans were grown as follows. Individual sterile culture dishes were filled with 2.5 mL of brain heart infusion broth supplemented with 1% (w/v) sucrose. Next, a sterile 18 mm glass microscope cover slip was added to each dish and the culture dish was covered. Each sample was then inoculated with a defined volume of overnight culture. The dishes were incubated anaerobically at 37° C. overnight.
Biofilms were grown overnight using previously described conditions. For treatment with SDS, cover-slips were removed from overnight incubation and rinsed briefly. These were then placed into a fresh culture dish and 2mL of sterile, 1% (w/v) SDS solution was added to each dish. The biofilms were placed on a standard shaker set at 150 rpm for one hour at room temperature. […] These samples were measured for their OD600 values. […]
(§2) As biofilms are known to be very resistant to detergents and biocides, we were also interested to determine if this property was influenced by the luxS mutation. […] These supernatants were then checked by microscopy to ensure that cells were not clumped, and subsequently, measured for the OD600. […]

[2] = tested on: wildtype S. mutans biofilms; experiment: Treatment of in vitro wildtype biofilm with ampicillin; format: cell-based, Streptococcus mutans; settings: 16 hours
Procedure: as §1
Biofilms were grown overnight using previously described conditions. For treatment with SDS, cover-slips were removed from overnight incubation and rinsed briefly. These were then placed into a fresh culture dish and 2mL of sterile, 1% (w/v) SDS solution was added to each dish. The biofilms were placed on a standard shaker set at 150 rpm for one hour at room temperature. Next, supernatant samples were checked at 40× magnification to confirm that cells were fully individualized and not connected in chains. These samples were measured for their OD600 values. For treatment with antibiotics, biofilms were again grown under standard conditions overnight. […]
as §2

[3] = tested on: V. harveyi BB170 (AI-2 reporter strain); experiment: AI-2 luminescence reporter assay of S. mutans conditioned media; format: cell-based, Vibrio harveyi; settings: S. mutans incubated 3 hours in AB media with sucrose at 1% final concentration
Procedure: S. mutans was grown and assayed as described in Materials and Methods. Cells were grown overnight and resuspended to an OD600 of 0.4 in reporter assay (AB) media and incubated with aeration for 3 hours at 37° C. One sample was incubated in AB alone, while the other had sucrose added to a final concentration of 1%.
The AI-2 luminescence reporter assay was performed essentially as described (38), with the following modifications. To obtain cell free conditioned media, S. mutans was grown overnight as described. Stationary phase cells were resuspended in AB media to an OD600 of 0.4. Cells were then incubated at 37° C. with aeration for 3 hrs. […]
To determine luminescence, an overnight culture of V. harveyi BB170 was diluted 1:1000 into fresh AB medium and 180 μL of cells was added to each 1.5 mL microfuge tube. […]
To determine levels of background luminescence, a sample containing 200 μL of 1:1000 diluted V. harveyi was also included. […] All samples were measured hourly until peak induction at the 3 hr time point. Measurements were collected using a TD 20/20 luminometer and expressed as arbitrary luminescence units.
Since S. mutans is an acidogenic bacterium, pH readings were taken to ensure that there were no negative effects due to lowered pH.

Structure (SMILES): CCCCCCCCCCCCOS(=O)(=O)[O-].[Na+] [SDS]
- OD600 of supernatant, wildtype relative to luxS mutant [1]: about 6 fold

Structure (SMILES): CC1(C)S[C@@H]2[C@H](NC(=O)[C@H](N)c3ccccc3)C(=O)N2[C@H]1C(=O)O [ampicillin]
- cells surviving ampicillin treatment ([2]; 50 μg/mL ampicillin): < 1%
- cells surviving ampicillin treatment ([2]; 500 μg/mL ampicillin): none survived

Structure (SMILES): OC[C@H]1O[C@@](CO)(O[C@H]2O[C@H](CO)[C@@H](O)[C@H](O)[C@H]2O)[C@@H](O)[C@@H]1O [sucrose]
- luminescence (AI-2 induction) relative to background [3]: potent reduction in luminescence to below background values
